{
  "source": "patent US7815945B2",
  "about": "“Medicament for the prevention and treatment of influenza” (priority 2005, dated 2010)",
  "tested_on": "A549 cells",
  "test": "Apoptotic caspase activation (Western blot for PARP cleavage)",
  "conditions": "48 h, extract 25 μg/ml and 50 μg/ml, staurosporine as positive control, FIG. 3",
  "data": [
    {"smiles": "CN[C@@H]1C[C@H]2O[C@@](C)([C@@H]1OC)n1c3ccccc3c3c4c(c5c6ccccc6n2c5c31)C(=O)NC4", "note": "[staurosporine]", "values": [
      {"measurement": "cleavage of the caspase substrate PARP (caspase activity)", "value": "efficient cleavage of the caspase substrate"}
    ]}
  ]
}
